In US20210269451A1, “PYRIDINYL HETEROCYCLYL COMPOUNDS FOR THE TREATMENT OF AUTOIMMUNE DISEASE” (Hoffmann-La Roche Inc., priority 2018, published 2021):

These compounds were tested against T1, human TLR7 (Homo sapiens, UniProt Q9NYK1) (assay: HEK293-Blue-hTLR-7 cells assay). Conditions: HEK293-Blue-hTLR7 cells, R848 stimulation, 20 hrs, SEAP reporter; read-out: HEK/hTLR7 IC50.
T1 construct: host or cells: HEK293-Blue-hTLR-7 (HEK293)
T1 sequence (Q9NYK1 27-1049): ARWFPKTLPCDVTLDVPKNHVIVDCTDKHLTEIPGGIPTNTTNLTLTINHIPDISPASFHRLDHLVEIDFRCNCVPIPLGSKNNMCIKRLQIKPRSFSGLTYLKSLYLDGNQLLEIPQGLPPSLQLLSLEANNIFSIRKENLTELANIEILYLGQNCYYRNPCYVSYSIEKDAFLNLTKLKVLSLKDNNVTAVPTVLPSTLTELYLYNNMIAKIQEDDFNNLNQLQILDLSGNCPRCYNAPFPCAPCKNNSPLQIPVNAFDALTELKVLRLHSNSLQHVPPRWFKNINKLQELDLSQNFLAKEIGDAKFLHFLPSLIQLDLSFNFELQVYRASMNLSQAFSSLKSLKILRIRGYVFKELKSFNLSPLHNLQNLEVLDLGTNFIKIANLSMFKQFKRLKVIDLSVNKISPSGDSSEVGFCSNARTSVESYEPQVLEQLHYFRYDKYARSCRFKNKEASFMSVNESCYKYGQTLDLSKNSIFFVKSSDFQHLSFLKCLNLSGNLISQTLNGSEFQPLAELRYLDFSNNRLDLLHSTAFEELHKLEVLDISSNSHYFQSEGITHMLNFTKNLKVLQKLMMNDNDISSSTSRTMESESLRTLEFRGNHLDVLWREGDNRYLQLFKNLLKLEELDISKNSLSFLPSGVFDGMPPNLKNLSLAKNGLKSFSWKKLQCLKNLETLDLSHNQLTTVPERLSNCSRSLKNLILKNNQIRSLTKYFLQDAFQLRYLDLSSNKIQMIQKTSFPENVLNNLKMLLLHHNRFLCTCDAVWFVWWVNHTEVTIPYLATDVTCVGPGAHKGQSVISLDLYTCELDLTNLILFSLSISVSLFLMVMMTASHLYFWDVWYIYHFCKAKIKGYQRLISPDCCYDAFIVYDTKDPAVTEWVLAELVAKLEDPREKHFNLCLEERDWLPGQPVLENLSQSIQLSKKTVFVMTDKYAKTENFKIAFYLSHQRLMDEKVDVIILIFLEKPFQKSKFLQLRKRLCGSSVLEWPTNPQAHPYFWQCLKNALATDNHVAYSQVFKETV
Assay type: cell-based
Protocol: The following tests were carried out in order to determine the activity of the compounds of formula (I) and (Ia) in HEK293-Blue-hTLR-7/8/9 cells assay.
HEK293-Blue-hTLR-7 cells assay:
A stable HEK293-Blue-hTLR-7 cell line was purchased from InvivoGen (Cat. #: hkb-htlr7, San Diego, Calif., USA). These cells were originally designed for studying the stimulation of human TLR7 by monitoring the activation of NE-κB. A SEAP (secreted embryonic alkaline phosphatase) reporter gene was placed under the control of the IFN-β minimal promoter fused to five NE-κB and AP-1-binding sites. The SEAP was induced by activating NE-κB and AP-1 via stimulating HEK-Blue hTLR7 cells with TLR7 ligands. Therefore the reporter expression was declined by TLR7 antagonist under the stimulation of a ligand, such as R848 (Resiquimod), for incubation of 20 hrs. The cell culture supernatant SEAP reporter activity was determined using QUANTI-Blue™ kit (Cat. #: rep-qbl, Invivogen, San Diego, Ca, USA) at a wavelength of 640 nm, a detection medium that turns purple or blue in the presence of alkaline phosphatase.
HEK293-Blue-hTLR7 cells were incubated at a density of 250,000-450,000 cells/mL in a volume of 170 μL in a 96-well plate in Dulbecco's Modified Eagle's medium (DMEM) containing 4.5 g/L glucose, 50 U/mL penicillin, […], […], 2 mM L-glutamine, 10% (v/v) heat-inactivated fetal bovine serum with addition of 20 μL test compound in a serial dilution in the presence of final DMSO at 1% and 10 μL of 20 uM R848 in above DMEM, perform incubation under 37° C. in a CO2 incubator for 20 hrs. Then 20 μL of the supernatant from each well was incubated with 180 μL Quanti-blue substrate solution at 37° C. for 2 hrs and the absorbance was read at 620˜655 nm using a spectrophotometer. The signalling pathway that TLR7 activation leads to downstream NE-κB activation has been widely accepted, and therefore similar reporter assay was modified for evaluating TLR7 antagonist.

SMILES	IC50
Cc1cc(N2CC(NC[C@H]3CN(c4ccc(C#N)c5ncccc45)C[C@@H](C)O3)CC(F)(F)C2)cc(CO)n1 (stereo partly shown) [Example 36]	17 nM
CNc1cc(N2CCN(C[C@H]3CN(c4ccc(C#N)c5ncccc45)C[C@@H](C)O3)CC2)cc(C)n1 [Example 42, 5-[(2R,6S)-2-methyl-6-[[4-[2-methyl-6-(methylamino)-4-pyridyl]piperazin-1-yl]methyl]morpholin-4-yl]quinoline-8-carbonitrile]	13 nM
Cc1cc(N2CCOC3(CN(C[C@H]4CN(c5ccc(C#N)c6ncccc56)C[C@@H](C)O4)C3)C2)ccn1 [Example 16]	< 3 nM
C[C@@H]1CN(c2ccc(C#N)c3ncccc23)C[C@H](CNC2CCN(c3ccnc(N)c3)CC2)O1 [Example 20, 5-[(2S,6R)-2-[[[1-(2-amino-4-pyridyl)-4-piperidyl]amino]methyl]-6-methyl-morpholin-4-yl]quinoline-8-carbonitrile]	200 nM
Cc1cc(N2CCOC3CN(CC4CN(c5ccc(C#N)c6ncccc56)CC(C)O4)CC32)cc(C)n1 (single isomer, unassigned) [Example 17A]	< 3 nM
C[C@@H]1CN(c2ccc(C#N)c3ncccc23)C[C@H](CN2CC3(C2)CN(c2ccnc(C(C)(C)O)c2)C3)O1 [Example 48, 5-[(2S,6R)-2[[2-[2-(1-hydroxy-1-methyl-ethyl)-4-pyridyl]-2,6-diazaspiro[3.3]heptan-6-yl]methyl]-6-methyl-morpholin-4-yl]quinoline-8-carbonitrile]	55 nM
Cc1cc(C2CCN(C[C@H]3CN(c4ccc(C#N)c5ncccc45)C[C@@H](C)O3)CC2)cc(N)n1 [Example 43, 5-[(2S,6R)-2-[[4-(2-amino-6-methyl-4-pyridyl)-1-piperidyl]methyl]-6-methyl-morpholin-4-yl]quinoline-8-carbonitrile]	7 nM
Cc1cc(N2CCC[C@@H](N(C)C[C@H]3CN(c4ccc(C#N)c5ncccc45)C[C@@H](C)O3)C2)cc(CO)n1 [Example 35]	17 nM
C[C@@H]1CN(c2ccc(C#N)c3ncccc23)C[C@H](CN2CC3(C2)CN(c2ccnc(C4CC4)c2)C3)O1 [Example 49, 5-[(2S,6R)-2[[2-(2-cyclopropyl-4-pyridyl)-2,6-diazaspiro[3.3]heptan-6-yl]methyl]-6-methyl-morpholin-4-yl]quinoline-8-carbonitrile]	13 nM
Cc1cc(N2CCN(C[C@H]3CN(c4ccc(C#N)c5ncccc45)C[C@@H](C)O3)CC2)cc(N)n1 [Example 40, 5-[(2S,6R)-2-[[4-(2-amino-6-methyl-4-pyridyl)piperazin-1-yl]methyl]-6-methyl-morpholin-4-yl]quinoline-8-carbonitrile]	8 nM
Cc1cc(N2CC[C@H](F)[C@H](NC[C@H]3CN(c4ccc(C#N)c5ncccc45)C[C@@H](C)O3)C2)cc(CO)n1 [Example 33]	12 nM
C[C@@H]1CN(c2ccc(C#N)c3ncccc23)C[C@H](CN2CC3(C2)CN(c2ccnc(C4CC4)c2)CCO3)O1 [Example 3, 5-[(2S,6R)-2-[[8-(2-cyclopropyl-4-pyridyl)-5-oxa-2,8-diazaspiro[3.5]nonan-2-yl]methyl]-6-methyl-morpholin-4-yl]quinoline-8-carbonitrile]	< 3 nM
C[C@@H]1CN(c2ccc(C#N)c3ncccc23)C[C@H](CN[C@H]2CCCN(c3ccnc(N)c3)C2)O1 [Example 22]	37 nM
C[C@@H]1CN(c2ccc(C#N)c3ncccc23)C[C@H](CN[C@@H]2CCCN(c3ccnc(N)c3)C2)O1 [Example 21, 5-[(2S,6R)-2-[[[(3R)-1-(2-amino-4-pyridyl)-3-piperidyl]amino]methyl]-6-methyl-morpholin-4-yl]quinoline-8-carbonitrile]	62 nM
Cc1cc(N2CCOC3(CN(C[C@H]4CN(c5ccc(C#N)c6ncccc56)C[C@@H](C)O4)C3)C2)cc(C)n1 [Example 14]	< 3 nM
C[C@@H]1CN(c2ccc(C#N)c3ncccc23)C[C@H](CN2CC3(C2)CN(c2ccnc(CO)c2)CCO3)O1 [Example 51]	< 3 nM
Cc1cc(NC2CN(C[C@H]3CN(c4ccc(C#N)c5ncccc45)C[C@@H](C)O3)C2)cc(C)n1 [Example 7]	26 nM
C[C@@H]1CN(c2ccc(C#N)c3ncccc23)C[C@H](CN2CCN(c3ccnc(N)c3)CC2)O1 [Example 19, 5-[(2S,6R)-2-[[4-(2-amino-4-pyridyl)piperazin-1-yl]methyl]-6-methyl-morpholin-4-yl]quinoline-8-carbonitrile]	6 nM
CC(O)c1cc(N2CC3(CN(C[C@H]4CN(c5ccc(C#N)c6ncccc56)C[C@@H](C)O4)C3)C2)ccn1 (stereo partly drawn) [Example 46, 5-[(2S,6R)-2-[[2-[2-(1-hydroxyethyl)-4-pyridyl]-2,6-diazaspiro[3.3]heptan-6-yl]methyl]-6-methyl-morpholin-4-yl]quinoline-8-carbonitrile]	32 nM

More lines, now with the values ahead:

IC50	SMILES
10 nM	Cc1cc(N2CCN(C[C@H]3CN(c4ccc(C#N)c5ncccc45)C[C@@H](C)O3)[C@H](C)C2)cc(CO)n1 [Example 4B]
122 nM	Cc1cc(N2CC[C@@H](NC[C@H]3CN(c4ccc(C#N)c5ncccc45)C[C@@H](C)O3)C2)cc(CO)n1 [Example 28]
65 nM	Cc1cc(N2CC(NC[C@H]3CN(c4ccc(C#N)c5ncccc45)C[C@@H](C)O3)C2)cc(CO)n1 [Example 30]
39 nM	C[C@@H]1CN(c2ccc(C#N)c3ncccc23)C[C@H](CN2CCN(c3cc(N)nc(CO)c3)CC2)O1 [Example 45, 5-[(2S,6R)-2-[[4-[2-amino-6-(hydroxymethyl)-4-pyridyl]piperazin-1-yl]methyl]-6-methyl-morpholin-4-yl]quinoline-8-carbonitrile]
59 nM	Cc1cc(NC2CCN(C[C@H]3CN(c4ccc(C#N)c5ncccc45)C[C@@H](C)O3)CC2)cc(CO)n1 [Example 5]
13 nM	Cc1cc(N2CCC23CN(C[C@H]2CN(c4ccc(C#N)c5ncccc45)C[C@@H](C)O2)C3)cc(CO)n1 [Example 12]
156 nM	Cc1cc(N2CC[C@H](NC[C@H]3CN(c4ccc(C#N)c5ncccc45)C[C@@H](C)O3)C2)cc(CO)n1 [Example 29]
34 nM	Cc1cc(N2CCC[C@H](NC[C@H]3CN(c4ccc(C#N)c5ncccc45)C[C@@H](C)O3)C2)cc(CO)n1 [Example 25]
44 nM	Cc1cc(NC2CCN(C[C@H]3CN(c4ccc(C#N)c5ncccc45)C[C@@H](C)O3)C2)cc(CO)n1 (stereo partly shown) [Example 6]
229 nM	Cc1cc(N2CCC(NC[C@H]3CN(c4ccc(C#N)c5ncccc45)C[C@@H](C)O3)CC2)cc(CO)n1 [Example 23]
10 nM	Cc1cc(N2CCN(C[C@H]3CN(c4ccc(C#N)c5ncccc45)C[C@@H](C)O3)CC2)cc(CO)n1 [Example 50]
16 nM	Cc1cc(N2CCC3(CN(C[C@H]4CN(c5ccc(C#N)c6ncccc56)C[C@@H](C)O4)C3)C2)cc(C)n1 [Example 9]
26 nM	Cc1cc(N2CCC[C@@H](NC[C@H]3CN(c4ccc(C#N)c5ncccc45)C[C@@H](C)O3)C2)cc(CO)n1 [Example 24]
7 nM	Cc1cc(N2CCC23CN(C[C@H]2CN(c4ccc(C#N)c5ncccc45)C[C@@H](C)O2)C3)cc(C)n1 [Example 8]
9 nM	Cc1cc(N2CCN(C[C@H]3CN(c4ccc(C#N)c5ncccc45)C[C@@H](C)O3)[C@@H](C)C2)cc(CO)n1 [Example 4A]
